System: male SD rats
Assay: Measurement of antianxiety activity using the elevated plus-maze
Format: in vivo, rat
Conditions: 3 and 10 mg/kg, 30 minutes after administration, 5 minutes period
Method: Two arms (open and closed) of equal width and length (50 cm×10 cm), which crossed at a right angle to form a plus maze, were elevated to a height 50 cm above the ground level. […] Lighting on both ends of the open arm was maintained at constant illumination. Thirty minutes after administration of various doses of test-compounds (5 mL/kg), male SD rats were placed in the center of the plus maze. The time spent(s) in the open arms and the number of entries into the respective arms were measured within a 5 minutes period. The investigation personnel for measuring the indexes positioned at a fixed location during the course of the experiment.

SMILES: CCC(CC)Nc1c2c(nc3c(-c4ccc(OC)cc4Cl)c(C)nn13)CCC2.Cl [Example 2(78), 8-(3-pentylamino)-2-methyl-3-(2-chloro-4-methoxyphenyl)-6,7-dihydro-5H-cyclopenta[d]pyrazolo[1,5-a]pyrimidine hydrochloride]
- time spent in the open arms (FIG. 1): extend significantly
- number of entries into the open arms (FIG. 2): increased significantly

From US7807688B2, “Tri-heterocyclic compounds and a pharmaceutical comprising them as an active ingredient” (Ono Pharmaceutical Co., Ltd., priority 2000, dated 2010)
